Experimental data as given in article PMC6901910, “Molecular Basis of C-30 Product Regioselectivity of Legume Oxidases Involved in High-Value Triterpenoid Biosynthesis” (Frontiers in Plant Science, 2019).

Key:
Test in all cases: in vivo yeast assay, GC-MS of products
CYP72A559 = molecular target: T1, CYP72A559 (Medicago truncatula, UniProt A0A5P8TXY6); format: cell-based; details: beta-amyrin formed in the cell by co-expressed OSC1; L. japonicus CPR; 30°C, 4 days
T1 construct: full length, expressed in S. cerevisiae INVSc1 with Lotus japonicus CPR and beta-amyrin synthase OSC1
T1 sequence (A0A5P8TXY6 1-518): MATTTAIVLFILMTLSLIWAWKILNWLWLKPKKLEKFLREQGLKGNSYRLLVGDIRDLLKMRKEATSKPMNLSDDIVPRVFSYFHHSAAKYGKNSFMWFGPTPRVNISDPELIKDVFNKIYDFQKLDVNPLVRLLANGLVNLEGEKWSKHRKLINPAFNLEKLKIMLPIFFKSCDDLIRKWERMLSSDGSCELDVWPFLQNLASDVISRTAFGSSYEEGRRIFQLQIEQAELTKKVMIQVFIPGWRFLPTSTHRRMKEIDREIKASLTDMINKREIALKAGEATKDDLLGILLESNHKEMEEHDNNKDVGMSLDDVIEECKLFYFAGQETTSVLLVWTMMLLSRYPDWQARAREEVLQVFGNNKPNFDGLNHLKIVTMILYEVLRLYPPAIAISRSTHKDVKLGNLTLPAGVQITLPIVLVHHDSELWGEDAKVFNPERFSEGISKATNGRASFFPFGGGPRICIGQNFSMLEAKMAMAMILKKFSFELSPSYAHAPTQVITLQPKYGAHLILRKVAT

TpCYP72A699 = molecular target: T2, TpCYP72A699 (Trifolium pratense, UniProt A0A5P8TXT7); format: cell-based; details: beta-amyrin formed in the cell by co-expressed OSC1; L. japonicus CPR; 30°C, 4 days
T2 construct: gene CYP72A699; full length, expressed in S. cerevisiae INVSc1 with Lotus japonicus CPR and beta-amyrin synthase OSC1

CYP72A560 = molecular target: T3, CYP72A560 (Medicago truncatula, UniProt A0A5P8TXP5); format: cell-based; details: beta-amyrin formed in the cell by co-expressed OSC1; L. japonicus CPR; 30°C, 4 days
T3 construct: full length, expressed in S. cerevisiae INVSc1 with Lotus japonicus CPR and beta-amyrin synthase OSC1

LjCYP72A697 = molecular target: T4, LjCYP72A697 (Lotus japonicus, UniProt A0A5P8TXS9); format: cell-based; details: beta-amyrin formed in the cell by co-expressed OSC1; L. japonicus CPR; 30°C, 4 days
T4 construct: gene CYP72A697; full length, expressed in S. cerevisiae INVSc1 with Lotus japonicus CPR and beta-amyrin synthase OSC1

CYP72A63 [1] = molecular target: T5, CYP72A63 (Medicago truncatula, UniProt H1A981); format: cell-based; details: beta-amyrin formed in the cell by co-expressed OSC1; L. japonicus CPR; 30°C, 4 days
T5 construct: full length, expressed in S. cerevisiae INVSc1 with Lotus japonicus CPR and beta-amyrin synthase OSC1
T5 sequence (H1A981 1-524): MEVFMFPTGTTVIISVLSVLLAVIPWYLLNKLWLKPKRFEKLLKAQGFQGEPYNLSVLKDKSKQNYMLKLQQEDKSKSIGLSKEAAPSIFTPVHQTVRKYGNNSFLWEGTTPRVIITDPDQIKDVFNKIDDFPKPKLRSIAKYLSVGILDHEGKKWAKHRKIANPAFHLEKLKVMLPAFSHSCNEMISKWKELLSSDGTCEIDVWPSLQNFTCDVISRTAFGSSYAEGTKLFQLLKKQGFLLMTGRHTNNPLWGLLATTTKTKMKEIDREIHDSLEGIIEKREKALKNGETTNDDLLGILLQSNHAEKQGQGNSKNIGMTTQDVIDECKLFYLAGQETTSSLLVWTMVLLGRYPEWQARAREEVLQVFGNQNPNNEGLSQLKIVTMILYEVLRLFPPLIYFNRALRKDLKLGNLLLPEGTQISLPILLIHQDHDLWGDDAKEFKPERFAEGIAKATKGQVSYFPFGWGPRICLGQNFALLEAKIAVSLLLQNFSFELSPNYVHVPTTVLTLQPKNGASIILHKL

GuCYP72A154 = molecular target: T6, GuCYP72A154 (Glycyrrhiza uralensis, UniProt H1A988); format: cell-based; details: beta-amyrin formed in the cell by co-expressed OSC1; L. japonicus CPR; 30°C, 4 days
T6 construct: gene CYP72A154; full length, expressed in S. cerevisiae INVSc1 with Lotus japonicus CPR and beta-amyrin synthase OSC1

VaCYP72A694 = molecular target: T7, VaCYP72A694 (Vigna angularis, UniProt A0A5P8TXJ3); format: cell-based; details: beta-amyrin formed in the cell by co-expressed OSC1; L. japonicus CPR; 30°C, 4 days
T7 construct: gene CYP72A694; full length, expressed in S. cerevisiae INVSc1 with Lotus japonicus CPR and beta-amyrin synthase OSC1

Gmax CYP72A141 = molecular target: T8, Gmax CYP72A141 (Glycine max, UniProt A0A5P8TY68); format: cell-based; details: beta-amyrin formed in the cell by co-expressed OSC1; L. japonicus CPR; 30°C, 4 days
T8 construct: full length, expressed in S. cerevisiae INVSc1 with Lotus japonicus CPR and beta-amyrin synthase OSC1

CYP72A63 [2] = molecular target: T9, CYP72A63 (Medicago truncatula, UniProt H1A981, L149V/L398V); format: cell-based; details: beta-amyrin formed in the cell by co-expressed OSC1; L. japonicus CPR; 30°C, 4 days
T9 construct: full length, expressed in S. cerevisiae INVSc1 with Lotus japonicus CPR and beta-amyrin synthase OSC1

CYP72A61v2 = molecular target: T10, CYP72A61v2 (Medicago truncatula, UniProt H1A980); format: cell-based; details: beta-amyrin formed in the cell by co-expressed OSC1; L. japonicus CPR; 30°C, 4 days
T10 construct: full length, expressed in S. cerevisiae INVSc1 with Lotus japonicus CPR and beta-amyrin synthase OSC1

CYP72A66v2 = molecular target: T11, CYP72A66v2 (Medicago truncatula, UniProt A0A5P8TY60); format: cell-based; details: beta-amyrin formed in the cell by co-expressed OSC1; L. japonicus CPR; 30°C, 4 days
T11 construct: full length, expressed in S. cerevisiae INVSc1 with Lotus japonicus CPR and beta-amyrin synthase OSC1

PvCYP72A302 = molecular target: T12, PvCYP72A302 (Phaseolus vulgaris, UniProt A0A5P8TXN3); format: cell-based; details: beta-amyrin formed in the cell by co-expressed OSC1; L. japonicus CPR; 30°C, 4 days
T12 construct: gene CYP72A302; full length, expressed in S. cerevisiae INVSc1 with Lotus japonicus CPR and beta-amyrin synthase OSC1

GpCYP72A154 = molecular target: T13, GpCYP72A154 (Glycyrrhiza pallidiflora, UniProt A0A5P8TXI9); format: cell-based; details: beta-amyrin formed in the cell by co-expressed OSC1; L. japonicus CPR; 30°C, 4 days
T13 construct: gene CYP72A154; full length, expressed in S. cerevisiae INVSc1 with Lotus japonicus CPR and beta-amyrin synthase OSC1
T13 sequence (A0A5P8TXI9 1-523): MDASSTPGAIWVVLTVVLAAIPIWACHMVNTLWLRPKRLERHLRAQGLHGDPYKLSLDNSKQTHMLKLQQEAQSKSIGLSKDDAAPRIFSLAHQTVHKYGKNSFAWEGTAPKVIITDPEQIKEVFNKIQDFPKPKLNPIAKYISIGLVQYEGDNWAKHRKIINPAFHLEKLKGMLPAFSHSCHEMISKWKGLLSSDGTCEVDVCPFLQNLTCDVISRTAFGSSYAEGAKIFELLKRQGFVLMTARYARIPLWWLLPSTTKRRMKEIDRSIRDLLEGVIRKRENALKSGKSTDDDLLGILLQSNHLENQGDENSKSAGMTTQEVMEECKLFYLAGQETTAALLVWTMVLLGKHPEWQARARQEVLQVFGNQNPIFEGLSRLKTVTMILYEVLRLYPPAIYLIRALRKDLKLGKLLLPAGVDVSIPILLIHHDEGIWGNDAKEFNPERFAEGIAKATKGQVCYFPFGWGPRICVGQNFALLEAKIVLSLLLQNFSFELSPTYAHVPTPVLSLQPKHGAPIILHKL

GgCYP72A154 = molecular target: T14, GgCYP72A154 (Glycyrrhiza glabra, UniProt A0A5P8TXJ1); format: cell-based; details: beta-amyrin formed in the cell by co-expressed OSC1; L. japonicus CPR; 30°C, 4 days
T14 construct: gene CYP72A154; full length, expressed in S. cerevisiae INVSc1 with Lotus japonicus CPR and beta-amyrin synthase OSC1
T14 sequence (A0A5P8TXJ1 1-523): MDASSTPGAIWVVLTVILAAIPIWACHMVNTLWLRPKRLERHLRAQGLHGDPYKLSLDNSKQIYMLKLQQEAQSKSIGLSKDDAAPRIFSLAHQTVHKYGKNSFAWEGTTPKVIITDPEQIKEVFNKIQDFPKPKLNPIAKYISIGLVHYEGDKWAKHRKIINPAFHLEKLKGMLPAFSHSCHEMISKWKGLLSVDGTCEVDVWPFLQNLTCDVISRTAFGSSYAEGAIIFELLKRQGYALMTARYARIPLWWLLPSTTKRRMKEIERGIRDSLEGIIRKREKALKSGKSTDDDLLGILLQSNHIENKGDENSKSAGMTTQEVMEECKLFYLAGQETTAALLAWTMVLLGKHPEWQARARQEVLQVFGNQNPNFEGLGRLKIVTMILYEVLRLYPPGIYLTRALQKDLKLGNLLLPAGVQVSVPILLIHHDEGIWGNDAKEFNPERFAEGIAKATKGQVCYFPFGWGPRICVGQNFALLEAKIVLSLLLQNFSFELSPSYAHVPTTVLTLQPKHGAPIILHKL

CYP72A62v2 = molecular target: T15, CYP72A62v2 (Medicago truncatula, UniProt H1A982, V149L/V398L); details: beta-amyrin formed in the cell by co-expressed OSC1; L. japonicus CPR; 30°C, 4 days; CYP72A63-based numbering
T15 construct: full length, expressed in S. cerevisiae INVSc1 with Lotus japonicus CPR and beta-amyrin synthase OSC1
T15 sequence (H1A982 entry or part of it V149L/V398L): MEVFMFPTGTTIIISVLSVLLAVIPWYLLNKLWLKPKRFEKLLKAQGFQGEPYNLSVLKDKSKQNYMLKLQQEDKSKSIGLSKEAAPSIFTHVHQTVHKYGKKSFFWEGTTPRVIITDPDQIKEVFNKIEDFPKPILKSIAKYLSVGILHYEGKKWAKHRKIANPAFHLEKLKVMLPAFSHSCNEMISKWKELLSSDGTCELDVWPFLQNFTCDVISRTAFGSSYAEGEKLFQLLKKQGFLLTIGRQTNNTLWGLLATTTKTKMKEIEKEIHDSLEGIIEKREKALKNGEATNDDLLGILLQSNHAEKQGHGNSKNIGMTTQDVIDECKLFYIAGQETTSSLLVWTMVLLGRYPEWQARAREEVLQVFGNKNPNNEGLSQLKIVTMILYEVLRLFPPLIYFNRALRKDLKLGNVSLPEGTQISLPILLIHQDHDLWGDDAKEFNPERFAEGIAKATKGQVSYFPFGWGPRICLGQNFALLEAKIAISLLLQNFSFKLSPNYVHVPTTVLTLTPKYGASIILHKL

T2 sequence (A0A5P8TXT7 entry or part of it): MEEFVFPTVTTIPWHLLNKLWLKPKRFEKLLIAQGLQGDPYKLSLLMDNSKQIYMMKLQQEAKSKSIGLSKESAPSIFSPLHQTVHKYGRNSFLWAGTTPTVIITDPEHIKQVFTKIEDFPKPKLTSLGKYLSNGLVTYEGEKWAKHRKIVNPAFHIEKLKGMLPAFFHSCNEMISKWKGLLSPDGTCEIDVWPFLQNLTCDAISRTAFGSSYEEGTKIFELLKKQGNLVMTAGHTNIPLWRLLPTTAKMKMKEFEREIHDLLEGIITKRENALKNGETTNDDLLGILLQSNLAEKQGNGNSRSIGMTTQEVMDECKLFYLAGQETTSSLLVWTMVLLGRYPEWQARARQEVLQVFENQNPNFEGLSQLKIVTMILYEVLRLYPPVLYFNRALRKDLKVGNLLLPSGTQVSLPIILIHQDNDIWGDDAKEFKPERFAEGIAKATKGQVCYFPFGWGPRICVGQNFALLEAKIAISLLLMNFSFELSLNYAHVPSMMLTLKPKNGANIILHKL
T7 sequence (A0A5P8TXJ3 entry or part of it): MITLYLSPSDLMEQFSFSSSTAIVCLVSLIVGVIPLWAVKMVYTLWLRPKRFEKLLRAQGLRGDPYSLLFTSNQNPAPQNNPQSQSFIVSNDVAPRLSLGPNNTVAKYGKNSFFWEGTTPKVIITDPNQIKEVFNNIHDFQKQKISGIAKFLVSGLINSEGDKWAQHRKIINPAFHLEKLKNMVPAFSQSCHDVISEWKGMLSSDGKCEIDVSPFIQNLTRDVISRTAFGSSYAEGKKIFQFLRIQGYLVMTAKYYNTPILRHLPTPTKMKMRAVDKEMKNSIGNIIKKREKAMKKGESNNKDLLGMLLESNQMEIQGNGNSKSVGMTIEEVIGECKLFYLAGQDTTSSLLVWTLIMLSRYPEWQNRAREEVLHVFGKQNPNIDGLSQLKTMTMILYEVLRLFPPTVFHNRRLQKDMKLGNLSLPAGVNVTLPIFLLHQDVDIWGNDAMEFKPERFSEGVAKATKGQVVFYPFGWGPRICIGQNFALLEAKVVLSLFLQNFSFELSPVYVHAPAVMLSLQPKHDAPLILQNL
T9 sequence (H1A981 whole entry L149V/L398V, the tested form may be a part): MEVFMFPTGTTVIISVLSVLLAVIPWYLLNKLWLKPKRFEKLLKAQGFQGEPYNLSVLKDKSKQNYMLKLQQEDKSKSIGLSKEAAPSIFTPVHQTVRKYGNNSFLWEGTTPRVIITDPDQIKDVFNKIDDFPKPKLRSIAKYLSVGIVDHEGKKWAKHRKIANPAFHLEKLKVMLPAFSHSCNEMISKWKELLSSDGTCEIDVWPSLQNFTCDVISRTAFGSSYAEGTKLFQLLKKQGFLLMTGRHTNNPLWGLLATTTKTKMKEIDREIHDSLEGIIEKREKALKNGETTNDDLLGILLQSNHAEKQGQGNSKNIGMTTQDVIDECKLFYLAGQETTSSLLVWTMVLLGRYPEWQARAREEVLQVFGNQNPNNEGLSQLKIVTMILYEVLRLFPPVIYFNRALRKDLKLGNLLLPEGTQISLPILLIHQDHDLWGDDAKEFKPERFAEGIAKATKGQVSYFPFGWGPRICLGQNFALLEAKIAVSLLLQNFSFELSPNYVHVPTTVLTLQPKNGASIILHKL
T12 sequence (A0A5P8TXN3 entry or part of it): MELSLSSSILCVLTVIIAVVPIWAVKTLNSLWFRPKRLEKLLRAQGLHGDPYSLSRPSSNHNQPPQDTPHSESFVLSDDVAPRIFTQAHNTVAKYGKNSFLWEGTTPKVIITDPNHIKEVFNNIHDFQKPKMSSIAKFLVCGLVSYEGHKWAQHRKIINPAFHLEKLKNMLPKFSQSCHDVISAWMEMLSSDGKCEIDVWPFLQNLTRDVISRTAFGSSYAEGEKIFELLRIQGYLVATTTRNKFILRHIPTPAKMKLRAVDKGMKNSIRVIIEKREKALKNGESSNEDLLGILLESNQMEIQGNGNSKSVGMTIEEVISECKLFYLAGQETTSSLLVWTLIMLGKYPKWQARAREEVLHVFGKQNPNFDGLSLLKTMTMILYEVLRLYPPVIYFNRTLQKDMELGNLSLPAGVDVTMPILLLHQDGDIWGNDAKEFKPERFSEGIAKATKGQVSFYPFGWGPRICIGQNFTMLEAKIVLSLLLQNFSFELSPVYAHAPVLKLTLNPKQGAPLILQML
T6 sequence (H1A988 whole entry): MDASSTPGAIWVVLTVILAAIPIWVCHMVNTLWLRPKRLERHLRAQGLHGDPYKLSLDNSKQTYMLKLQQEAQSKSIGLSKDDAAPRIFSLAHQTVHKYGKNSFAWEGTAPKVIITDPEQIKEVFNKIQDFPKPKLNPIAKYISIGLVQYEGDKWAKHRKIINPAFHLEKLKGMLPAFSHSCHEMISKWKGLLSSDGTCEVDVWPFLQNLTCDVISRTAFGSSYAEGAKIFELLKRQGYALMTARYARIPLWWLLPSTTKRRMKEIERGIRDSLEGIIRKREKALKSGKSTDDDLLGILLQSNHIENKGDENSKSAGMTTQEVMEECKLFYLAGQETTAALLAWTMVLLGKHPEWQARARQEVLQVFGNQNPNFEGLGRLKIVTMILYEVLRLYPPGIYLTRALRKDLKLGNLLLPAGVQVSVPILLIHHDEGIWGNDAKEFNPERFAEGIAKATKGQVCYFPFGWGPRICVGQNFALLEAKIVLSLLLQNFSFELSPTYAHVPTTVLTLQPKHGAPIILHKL
T4 sequence (A0A5P8TXS9 entry or part of it): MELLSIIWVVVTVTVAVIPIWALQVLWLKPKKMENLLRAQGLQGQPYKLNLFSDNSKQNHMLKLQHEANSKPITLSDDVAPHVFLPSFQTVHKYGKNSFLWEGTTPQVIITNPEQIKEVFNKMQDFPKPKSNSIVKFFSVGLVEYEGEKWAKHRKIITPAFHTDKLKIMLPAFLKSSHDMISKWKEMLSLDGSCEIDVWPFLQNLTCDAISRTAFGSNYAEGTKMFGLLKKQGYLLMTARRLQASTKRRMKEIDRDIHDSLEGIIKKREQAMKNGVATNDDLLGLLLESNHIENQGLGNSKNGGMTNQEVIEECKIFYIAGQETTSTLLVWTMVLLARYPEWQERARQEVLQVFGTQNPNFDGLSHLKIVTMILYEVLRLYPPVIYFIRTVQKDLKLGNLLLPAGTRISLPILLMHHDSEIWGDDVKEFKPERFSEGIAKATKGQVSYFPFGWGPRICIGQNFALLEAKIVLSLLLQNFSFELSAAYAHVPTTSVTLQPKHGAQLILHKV
T8 sequence (A0A5P8TY68 1-520): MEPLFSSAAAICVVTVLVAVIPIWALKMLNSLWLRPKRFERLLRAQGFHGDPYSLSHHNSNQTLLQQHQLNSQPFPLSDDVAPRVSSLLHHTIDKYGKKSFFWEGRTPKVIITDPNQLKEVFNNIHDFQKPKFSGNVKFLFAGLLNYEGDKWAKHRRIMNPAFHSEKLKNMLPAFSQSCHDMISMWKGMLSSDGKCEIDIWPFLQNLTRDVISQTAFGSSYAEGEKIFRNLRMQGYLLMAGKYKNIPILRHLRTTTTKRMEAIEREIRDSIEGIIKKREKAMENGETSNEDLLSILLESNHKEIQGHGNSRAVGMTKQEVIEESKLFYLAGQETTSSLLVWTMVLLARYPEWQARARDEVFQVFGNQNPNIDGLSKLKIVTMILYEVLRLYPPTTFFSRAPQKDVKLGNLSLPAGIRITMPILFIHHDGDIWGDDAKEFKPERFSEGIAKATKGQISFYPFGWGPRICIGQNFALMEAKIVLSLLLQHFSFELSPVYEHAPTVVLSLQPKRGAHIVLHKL
T10 sequence (H1A980 entry or part of it): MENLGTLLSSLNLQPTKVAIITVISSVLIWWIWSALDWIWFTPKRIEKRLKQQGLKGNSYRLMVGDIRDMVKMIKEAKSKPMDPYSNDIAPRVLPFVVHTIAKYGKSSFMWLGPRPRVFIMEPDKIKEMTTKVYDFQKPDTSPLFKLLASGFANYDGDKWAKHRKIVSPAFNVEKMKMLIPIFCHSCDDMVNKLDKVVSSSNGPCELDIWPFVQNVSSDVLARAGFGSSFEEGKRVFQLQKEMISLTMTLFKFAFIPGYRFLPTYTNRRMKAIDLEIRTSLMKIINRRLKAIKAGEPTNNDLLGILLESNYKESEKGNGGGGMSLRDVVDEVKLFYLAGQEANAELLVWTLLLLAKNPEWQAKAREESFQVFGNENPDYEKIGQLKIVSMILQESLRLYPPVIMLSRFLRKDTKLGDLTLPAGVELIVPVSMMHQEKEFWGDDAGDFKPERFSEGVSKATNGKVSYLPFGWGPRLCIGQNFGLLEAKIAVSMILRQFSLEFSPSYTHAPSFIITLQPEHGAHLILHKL

Compound: CC1(C)CC[C@]2(C)CC[C@]3(C)C(=CC[C@@H]4[C@@]5(C)CC[C@H](O)C(C)(C)[C@@H]5CC[C@]43C)[C@@H]2C1 [β-amyrin]
- in vivo yeast assay, GC-MS of products (CYP72A559): CYP72A559 and CYP72A560 showed oxidation activity against β-amyrin at the D or E ring
- in vivo yeast assay, GC-MS of products (TpCYP72A699): regioselectivity in the C-29 position was common among them
- in vivo yeast assay, GC-MS of products (CYP72A560): CYP72A559 and CYP72A560 showed oxidation activity against β-amyrin at the D or E ring
- in vivo yeast assay, GC-MS of products (LjCYP72A697): in vivo enzymatic assays showed that they have regioselectivity in the C-29 position
- in vivo yeast assay, GC-MS of products (CYP72A63 [1]): CYP72A63 showed oxidation activity against β-amyrin at the C-30 position
- in vivo yeast assay, GC-MS of products (GuCYP72A154): GuCYP72A154 and GgCYP72A154 oxidized β-amyrin with less regioselectivity at the D or E ring
- in vivo yeast assay, GC-MS of products (VaCYP72A694): in vivo enzymatic assays showed that they have regioselectivity in the C-29 position
- in vivo yeast assay, GC-MS of products (Gmax CYP72A141): in vivo enzymatic assays showed that they have regioselectivity in the C-29 position
- in vivo yeast assay, GC-MS of products (CYP72A63 [2]): CYP72A63^L149V/L398V and CYP72A63^L149V/L398I had altered product regioselectivity resembling their counterparts
- in vivo yeast assay, GC-MS of products (CYP72A61v2): showed oxidation activity against β-amyrin at position C-22β, producing sophoradiol
- in vivo yeast assay, GC-MS of products (CYP72A66v2): β-Amyrin C-22β oxidation activity was also detected in CYP72A66v2 (subgroup III)
- in vivo yeast assay, GC-MS of products (PvCYP72A302): regioselectivity in the C-29 position was common among them
- in vivo yeast assay, GC-MS of products (GpCYP72A154): the non-glycyrrhizin-producing species GpCYP72A154 oxidized β-amyrin
- in vivo yeast assay, GC-MS of products (GgCYP72A154): GuCYP72A154 and GgCYP72A154 oxidized β-amyrin with less regioselectivity at the D or E ring
- in vivo yeast assay, GC-MS of products (CYP72A62v2): CYP72A62v2^V149L/V398L produced only C-30 oxidized products, 30-hydroxy-β-amyrin and 11-deoxoglycyrrhetinic acid
